Measured values taken from US10206401B2, “Pyridine compounds for controlling invertebrate pests II” (BASF SE, priority 2010, dated 2019).

What was measured:
Type in all cases: in vivo
[1] = tested on: Vetch Aphid (Megoura viciae); experiment: Vetch aphid, bean leaf disks in microtiterplates; conditions: foliar, 144 h, test solution 2500 mg/L, bean leaf disks sprayed, 6 days
Procedure: II.4 Vetch Aphid (Megoura viciae)
The active compounds were formulated in 1:3 (vol/vol) DMSO:water with different concentrations of formulated compounds.
Bean leaf disks were placed into microtiterplates filled with 0.8% agar-agar and 2.5 ppm OPUS™. The leaf disks were sprayed with 2.5 μl of the test solution and 5 to 8 adult aphids were placed into the microtiterplates which were then closed and kept at 23±1° C. and 50±5% relative humidity under fluorescent light for 6 days. Mortality was assessed on the basis of vital, reproduced aphids. Aphid mortality and fecundity was then visually assessed.

[2] = tested on: Cowpea Aphid (Aphis craccivora); experiment: Cowpea aphid, potted cowpea plants sprayed; conditions: population reduction assessed after 24, 72 and 120 hours, read-out: mortality in comparison with untreated controls
Procedure: II.3 Cowpea Aphid (Aphis craccivora)
The active compounds were formulated in 50:50 (vol/vol) acetone:water. The test solution was prepared at the day of use.
Potted cowpea plants colonized with 100-150 aphids of various stages were sprayed after the pest population had been recorded. Population reduction was assesed after 24, 72, and 120 hours.

[3] = tested on: Cotton Aphid (Aphis gossypii, Mixed Life Stages); experiment: Cotton aphid, method a (cotyledon dip); conditions: 120 h, cotton cotyledons dipped, after 5 days, read-out: mortality in comparison with untreated controls
Description: II.1 Cotton Aphid (Aphis gossypii, Mixed Life Stages)
The active compounds were formulated in 50:50 (vol/vol) acetone:water and 100 ppm Kinetica™ surfactant.
Cotton plants at the cotyledon stage (one plant per pot) were infested by placing a heavily infested leaf from the main colony on top of each cotyledon. The aphids were allowed to transfer to the host plant overnight, and the leaf used to transfer the aphids was removed. The cotyledons were dipped in the test solution and allowed to dry. After 5 days, mortality counts were made.

`Cc1c(C(=O)Nc2cccnc2)nnn1Cc1ccccc1` [Example 2, 1-Benzyl-5-methyl-1H-[1,2,3]triazole-4-carboxylic acid pyridin-3-ylamide] was tested, and the mortality at 2500 µg/mL [1] was at least 90%, the mortality at 300 ppm [2] was at least 90% and the mortality at 300 ppm [3] was at least 75%.
